In brackets after ≈: the same amount, converted by molar mass.
Tests used:
Aspergillus niger = assay: Antimicrobial spectrum, minimum growth inhibiting concentration (MIC); format: cell-based; details: 72 h, Sabouraud's medium pH 5 to 6, 25° C., 3 days
Method: (§1) The antimicrobial spectrum was determined using Sabouraud's medium. Three hundred milligrams of o-methoxycinnamaldehyde was dissolved in 15 ml of methanol and diluted to give solutions with different concentrations. An aliquot of 0.1 ml of the solutions was charged into a test tube. Each 10 ml of the sterilized Sabouraud's medium of pH of 5 to 6 was charged into each of the above-mentioned test tube and well mixed with the solution of the present substance. A variety of microbial species were provided and each species was suspended in a physiological salt solution in an amount of 10^5 /ml.

Candida albicans = assay: as above; format: cell-based; details: 72 h, Sabouraud's medium pH 5 to 6, 25° C., 3 days
Method: as §1

Cryptococcus neoformans = assay: as above; format: cell-based; details: 72 h, Sabouraud's medium pH 5 to 6, 25° C., 3 days
Method: as §1

Aspergillus fumigatus = assay: as above; format: cell-based; details: 72 h, Sabouraud's medium pH 5 to 6, 25° C., 3 days
Method: as §1

Staphylococcus aureus = assay: as above; format: cell-based; details: 72 h, Sabouraud's medium pH 5 to 6, 25° C., 3 days
Method: as §1

Trichophyton rubrum = assay: as above; format: cell-based; details: 72 h, Sabouraud's medium pH 5 to 6, 25° C., 3 days
Method: as §1

Microsporum gypseum = assay: as above; format: cell-based; details: Nannizzia gypsea, 72 h; Sabouraud's medium pH 5 to 6, 25° C., 3 days
Method: as §1

[1] = test system: Trichophyton mentagrophytes; assay: as above; format: cell-based; details: 72 h, Sabouraud's medium pH 5 to 6, 25° C., 3 days
Method: as §1

Escherichia coli = assay: as above; format: cell-based; details: 72 h, Sabouraud's medium pH 5 to 6, 25° C., 3 days
Method: as §1

Microsporum canis = assay: as above; format: cell-based; details: 72 h, Sabouraud's medium pH 5 to 6, 25° C., 3 days
Method: as §1

[2] = Antimicrobial activity of synthesized versus extracted substance; details: synthesis method vs extraction method
Solubility = format: physicochemical
[3] = Subacute toxicity, daily administration over 3 months; format: in vivo, mice; details: every day over 3 months, oral 100 mg/kg and percutaneous 250 mg/kg, respectively
Method: Further, in order to determine the subacute toxicity of the present substance, it was administered to mice every day over 3 months via an oral and a percutaneous routes using the dosage of 100 mg/kg and 250 mg/kg, respectively.

[4] = Acute toxicity (LD50, mortality one week after administration, Litchfield-Wilcoxon; autopsy after oral administration); format: in vivo, ICR-JCL female mice; details: for LD50 at 168 h: mouse, in vivo, mice, 10 tested, one week after administration
Text: Ortho-methoxycinnamaldehyde was suspended in a mixed sulution of 1 part of Tween (mfd. Atlas Powder Co.) and 2 parts of a physiological salt solution. Commercially available ICR-JCL female mice (with a body weight of 22±1 g) were used for the toxicity tests, in which the mice were divided into groups, one being subjected to the percutaneous administration (p.c.) and the other group subjected to the oral administration (p.o.) and, one week after the administration their mortality was observed.

[5] = one week after oral administration

In the case of COc1ccccc1C=CC=O [o-methoxycinnamaldehyde], the MIC (Aspergillus niger) is reported as 200 µg/mL (≈ 1230 µM), the MIC (Candida albicans) is reported as 50 µg/mL (≈ 308 µM) and the MIC (Cryptococcus neoformans) is reported as 12.5 µg/mL (≈ 77.1 µM). It also gave an MIC (Aspergillus fumigatus) of 100 µg/mL (≈ 617 µM), an MIC (Staphylococcus aureus) of 50 µg/mL (≈ 308 µM) and an MIC (Trichophyton rubrum) of 12.5 µg/mL (≈ 77.1 µM). For the same molecule, the MIC (Microsporum gypseum) was 25 µg/mL (≈ 154 µM), the MIC [1] was 12.5 µg/mL (≈ 77.1 µM) and the MIC (Escherichia coli) was 60 µg/mL (≈ 370 µM). For the same molecule, the MIC (Microsporum canis) was 6.25 µg/mL (≈ 38.5 µM), the “Antimicrobial activity of substance obtained by synthesis compared with that obtained by extraction” value [2] was “identical in physical properties and antimicrobial activity to that obtained from the extraction method” and the “Solubility in methanol, ethanol, acetone, benzene and chloroform” value (Solubility; methanol, ethanol, acetone, benzene and chloroform) was “Soluble in methanol, ethanol, acetone, benzene and chloroform”. For the same molecule, the Solubility in water (Solubility; water) was “insoluble in water”, the “Death or abnormal symptom (subacute toxicity)” value [3] was “neither death nor abnormal symptom was observed” and the LD50 at 168 h ([4]; topical or ocular, percutaneous (p.c.)) was 8670 mg/kg. The LD50 at 168 h ([4]; oral (p.o.)) was 4430 mg/kg, the “Autopsy findings in appearance and visceral observation” value [4, 5] was “no specific abnormal finding was obtained in appearance and also in visceral observation” and the Toxic symptom [4, 5] was “no specific toxic sympton was observed”.

Reference: patent US4202877A, “Antidermatomycotic agent” (Kureha Kagaku Kogyo Kabushiki Kaisha, priority 1977, dated 1980)
